For one compound, Activity results are on record in ChEMBL document CHEMBL4421729 (2013).

This assay has as its target T1, Taste receptor type 2 member 46 (Homo sapiens) (UniProt P59540).
T1 sequence (whole entry): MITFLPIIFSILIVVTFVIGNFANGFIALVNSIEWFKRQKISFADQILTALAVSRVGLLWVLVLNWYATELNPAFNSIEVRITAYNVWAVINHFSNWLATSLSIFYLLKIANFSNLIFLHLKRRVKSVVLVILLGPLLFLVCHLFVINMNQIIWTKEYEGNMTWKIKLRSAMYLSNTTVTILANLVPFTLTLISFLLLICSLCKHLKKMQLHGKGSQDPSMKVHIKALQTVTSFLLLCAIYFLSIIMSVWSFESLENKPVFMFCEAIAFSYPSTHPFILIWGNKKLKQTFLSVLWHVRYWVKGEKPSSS
Briefly: Agonist activity human TAS2R46 transiently expressed in HEK293T/Galpha16-gustducin 44 cells assessed as effect on calcium flux by measuring deltaF/F0 ratio by Fluo-4-AM dye based FLIPR assay. Type of assay: functional, cell-based. On the technique in general: A change in cytosolic calcium serves as a functional read-out for many receptors and channels.

For `COc1ccc2c(c1)[C@]13CCCC[C@@H]1[C@H](C2)N(C)CC3`, the Activity result is “Dose-dependent effect”.
